# Earlier results in paper PMC6271218, “Pharmacokinetics, Tissue Distribution and Excretion of Verticinone from F. hupehensis in Rats” (Molecules, 2014).
# Design: method as in PMID 20446906
# Details: same dose administered; cited from earlier work
smiles,measurement,value
C[C@@H](Oc1cc(-c2cnn(C3CCNCC3)c2)cnc1N)c1c(Cl)ccc(F)c1Cl [PF-02341066],"plasma concentrations, fold higher in male than in female rats",at least 2 fold
